Measured values taken from the supplement of paper PMC11061612.

Tests used:
SK-N-DZ (Neuroblastoma) [1] = assay: Bliss excess, mean over the matrix (fraction); higher = more synergy
Procedure, shortened: (§1)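 Cell lines in DMEM/F12 or RPMI with 10% FBS were plated in 1536-well plates, held 24 hours at 37°C, 5% CO2, then given two-drug dose matrices for 72 hours (DMSO typically 0.2%). Viability was read by CellTiter-Glo 2.0 luminescence and scaled as inhibition from 0 (vehicle wells) to 1 (blank wells). Combination Emax is the second-highest inhibition in the matrix; Bliss excess is observed combination effect minus expected EA + EB − EA·EB, EA and EB being single-agent effects.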

DK-MG (Glioblastoma) = assay: as above
Procedure, shortened: as §1

[2] = tested on: NCI-H1944 (Lung Adenocarcinoma); assay: as above
Procedure, shortened: as §1

[3] = tested on: MDA-MB-175-VII (Breast Carcinoma); assay: as above
Procedure, shortened: as §1

NCI-H2452 (Mesothelioma) [4] = assay: as above
Procedure, shortened: as §1

[5] = tested on: SW1463 (Colorectal Carcinoma); assay: as above
Procedure, shortened: as §1

[6] = tested on: JURL-MK1 (Chronic Myelogenous Leukemia); assay: as above
Procedure, shortened: as §1

[7] = tested on: ATN-1 (T-Lymphoblastic Leukemia); assay: as above
Procedure, shortened: as §1

[8] = tested on: NTERA-2-cl-D1 (Other Solid Carcinomas); assay: as above
Procedure, shortened: as §1

[9] = tested on: L-363 (Plasma Cell Myeloma); assay: as above
Procedure, shortened: as §1

[10] = tested on: NCI-H1975 (Lung Adenocarcinoma); assay: as above
Procedure, shortened: as §1

[11] = tested on: NCI-H835 (Other Solid Carcinomas); assay: as above
Procedure, shortened: as §1

SK-N-DZ (Neuroblastoma) [12] = assay: combination Emax (second highest fraction inhibited in the dose matrix, 72 h); higher = more inhibition; extreme values may be limits of the assay
Procedure, shortened: as §1

[13] = tested on: CAL-85-1 (Breast Carcinoma); assay: as above
Procedure, shortened: as §1

[14] = tested on: NCI-H1048 (Small Cell Lung Carcinoma); assay: as above
Procedure, shortened: as §1

[15] = tested on: JJN-3 (Plasma Cell Myeloma); assay: as above
Procedure, shortened: as §1

NCI-H2452 (Mesothelioma) [16] = assay: as above
Procedure, shortened: as §1

[17] = tested on: KNS-62 (Squamous Cell Lung Carcinoma); assay: as above
Procedure, shortened: as §1

[18] = tested on: SW1463 (Colorectal Carcinoma); assay: as above
Procedure, shortened: as §1

[19] = tested on: NCI-H2023 (Non-Small Cell Lung Carcinoma); assay: as above
Procedure, shortened: as §1
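For Bliss excess, mean over the matrix in this document: after 72 h of two-drug dosing.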

| SMILES | Bliss excess (SK-N-DZ (Neuroblastoma) [1]) | Bliss excess (DK-MG (Glioblastoma)) | Bliss excess [2] | Bliss excess [3] | Bliss excess (NCI-H2452 (Mesothelioma) [4]) | Bliss excess [5] | Bliss excess [6] | Bliss excess [7] | Bliss excess [8] | Bliss excess [9] | Bliss excess [10] | Bliss excess [11] | combination Emax (SK-N-DZ (Neuroblastoma) [12]) | combination Emax [13] | combination Emax [14] | combination Emax [15] | combination Emax (NCI-H2452 (Mesothelioma) [16]) | combination Emax [17] | combination Emax [18] | combination Emax [19] |
| --- | --- | --- | --- | --- | --- | --- | --- | --- | --- | --- | --- | --- | --- | --- | --- | --- | --- | --- | --- | --- |
| Cc1cc2ncnn2cc1Nc1ncc2c(n1)n(C1CCOCC1)c(=O)n2C [AZD7648] + CCN(CCO)CCCOc1ccc2c(Nc3cc(CC(=O)Nc4cccc(F)c4)[nH]n3)ncnc2c1 [AZD2811] (first compound max 10 µM, 7x7, partner max 1 µM) | 0.088 | 0.0189 | 0.0709 | -0.0042 | 0.001 | -0.0035 | -0.0046 | -0.0768 | 0.012 | 0.0321 | 0.008 | 0.0595 | 0.635 | 0.31 | 0.706 | 0.308 | 0.497 | 0.326 | 0.27 | 0.534 |
| Cc1cc2ncnn2cc1Nc1ncc2c(n1)n(C1CCOCC1)c(=O)n2C [AZD7648] + CN(C)CCCOc1ccc(-c2ccc3ncc4c(c3c2)n(C2CCOCC2)c(=O)n4C)cn1 [AZD0156] (first compound max 10 µM, 7x7, partner max 1 µM) | 0.038 | 0.0157 | -0.0039 | -0.0453 | -0.0457 | 0.0037 | -0.0184 | 0.0185 | -0.0248 | 0.0303 | -0.0071 | 0.0086 | 0.31 | 0.371 | 0.407 | 0.17 | 0.42 | 0.235 | 0.159 | 0.586 |
| Cc1cc2ncnn2cc1Nc1ncc2c(n1)n(C1CCOCC1)c(=O)n2C [AZD7648] + C[C@@H]1COCCN1C2=NC(=NC(=C2)C3(CC3)[S@](=N)(=O)C)C4=C5C=CNC5=NC=C4 [AZD6738] (first compound max 10 µM, 7x7, partner max 10 µM) | -0.018 | 0.0297 | 0.0055 | 0.0441 | 0.0084 | 0.0087 | -0.0039 | 0.0406 | 0.0533 | 0.0096 | 0.015 | 0.0417 | 0.949 | 0.594 | 0.508 | 0.694 | 0.525 | 0.526 | 0.543 | 0.796 |
| Cc1nc(Nc2ncc(C(=O)Nc3c(C)cccc3Cl)s2)cc(N2CCN(CCO)CC2)n1 [Dasatinib] + CC(=O)Nc1cccc(-n2c(=O)n(C3CC3)c(=O)c3c(Nc4ccc(I)cc4F)n(C)c(=O)c(C)c32)c1 [Trametinib] (first compound max 2 µM, 7x7, partner max 1 µM) | -0.0332 | -0.0685 | 0.0343 | -0.132 | -0.0671 | -0.0659 | -0.0029 | -0.089 | 0.0638 | -0.0221 | 0.0302 | -0.0662 | 0.192 | 0.853 | 0.144 | 0.446 | 0.804 | 0.564 | 0.786 | 0.394 |
| COc1cc2ncnc(Nc3ccc(F)c(Cl)c3)c2cc1OCCCN1CCOCC1 [Gefitinib] + CC(C)n1c(=O)n(C)c2cnc3cc(F)c(-c4ccc(OCCCN5CCCCC5)nc4)cc3c21 [AZD1390] (first compound max 10 µM, 7x7, partner max 0.3 µM) | -0.0375 | -0.0817 | -0.0668 | -0.0191 | -0.108 | 0.0109 | -0.0586 | -0.0377 | -0.0643 | -0.0135 | -0.0676 | -0.0381 | 0.19 | 0.466 | 0.0795 | 0.236 | 0.306 | 0.0888 | 0.728 | 0.151 |
| COc1cc2c(cc1OCCCCCOc1cc3c(cc1OC)C(=O)N1C=C(C)C[C@H]1C=N3)N=C[C@@H]1CC(C)=CN1C2=O [SG3199] + O=C(c1cc(Cc2n[nH]c(=O)c3ccccc23)ccc1F)N1CCN(C(=O)C2CC2)CC1 [Olaparib] (first compound max 0.001 µM, 7x7, partner max 10 µM) | -0.0199 | -0.0446 | -0.0259 | -0.0489 | -0.117 | -0.0393 | -0.0007 | -0.0249 | -0.0586 | -0.0123 | -0.0171 | -0.0406 | 0.358 | 0.188 | 0.387 | 0.254 | 0.155 | 0.0885 | 0.0306 | 0.173 |
| C[C@@H](c1ccc2nccn2c1)n1nnc2ncc(-c3cnn(C)c3)nc21 [Savolitinib] + CC1(C)CCC(CN2CCN(c3ccc(C(=O)NS(=O)(=O)c4ccc(NCC5CCOCC5)c([N+](=O)[O-])c4)c(Oc4cnc5[nH]ccc5c4)c3)CC2)=C(c2ccc(Cl)cc2)C1 [Venetoclax] (first compound max 1 µM, 7x7, partner max 1 µM) | -0.0158 | -0.119 | -0.0328 | -0.013 | -0.0714 | -0.0339 | -0.0679 | -0.0192 | -0.0678 | -0.0159 | -0.0329 | -0.0355 | 0.173 | 0.146 | 0.178 | 0.234 | 0.174 | 0.0888 | 0.247 | 0.261 |
| C[C@@H](c1ccc2nccn2c1)n1nnc2ncc(-c3cnn(C)c3)nc21 [Savolitinib] + Cc1c2c(nn1C)CSCc1cc(n(C)n1)CSc1cc(c3ccccc3c1)OCCCc1c(C(=O)O)n(C)c3c-2c(Cl)ccc13 [AZD5991] (first compound max 1 µM, 7x7, partner max 1 µM) | 0.002 | -0.0226 | -0.0112 | -0.0244 | -0.109 | -0.0109 | -0.0037 | -0.0293 | -0.015 | -0.0203 | -0.0275 | -0.0267 | 0.255 | 0.0993 | 0.196 | 0.992 | 0.205 | 0.141 | 0.255 | 0.247 |
